Assay results as given in ChEMBL document CHEMBL1201862, “PubChem BioAssay data set” (2004).
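Interpolation was linear, between the two tested concentrations surrounding the appropriate level; five concentrations were tested over 48 hours in 96-well plates. The concentration for 50% growth inhibition is given as GI50.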 The source made the active and inactive calls. Rule as the data show it: active = GI50 up to about 1.1 µM and inactive = higher.

Experiments:
Assay in all cases: NCI-60 cell line screen, 48 h
SK-MEL-5 = tested on: SK-MEL-5
HOP-62 = tested on: HOP-62
DLD-1 = tested on: DLD-1
LOX IMVI = tested on: LOX IMVI
KM12 = tested on: KM12
UACC-257 = tested on: UACC-257
UO-31 = tested on: UO-31
OVCAR-8 = tested on: OVCAR-8
U-251 = tested on: U-251
SF-268 = tested on: SF-268
K562 = tested on: K562
RXF 631 = tested on: RXF 631
OVCAR-3 = tested on: OVCAR-3
HCC 2998 = tested on: HCC 2998
SK-MEL-2 = tested on: SK-MEL-2
CCRF-CEM = tested on: CCRF-CEM
CAKI-1 = tested on: CAKI-1
DMS-114 = tested on: DMS-114
RXF 393 = tested on: RXF 393
HOP-92 = tested on: HOP-92
COLO 205 = tested on: COLO 205
M19-MEL = tested on: M19-MEL
MOLT-4 = tested on: MOLT-4
UACC-62 = tested on: UACC-62
IGROV-1 = tested on: IGROV-1
SF-539 = tested on: SF-539
KM-20L2 = tested on: KM-20L2
HL-60 = tested on: HL-60
SNB-75 = tested on: SNB-75
LXFL 529 = tested on: LXFL 529
786-0 = tested on: 786-0
NCI-H23 = tested on: NCI-H23
ACHN = tested on: ACHN
HCT-116 = tested on: HCT-116
SW-620 = tested on: SW-620
RPMI-8226 = tested on: RPMI-8226
SNB-19 = tested on: SNB-19
TK-10 = tested on: TK-10
OVCAR-4 = tested on: OVCAR-4
OVCAR-5 = tested on: OVCAR-5
Malme-3M = tested on: Malme-3M
SK-MEL-28 = tested on: SK-MEL-28
NCI-H522 = tested on: NCI-H522
A498 = tested on: A498
A549 = tested on: A549
M14 = tested on: M14
EKVX = tested on: EKVX
SNB-78 = tested on: SNB-78
SK-OV-3 = tested on: SK-OV-3
HCT-15 = tested on: HCT-15
NCI-H460 = tested on: NCI-H460
XF498 = tested on: XF498
SF-295 = tested on: SF-295
DMS-273 = tested on: DMS-273
HOP-18 = tested on: HOP-18
SR = tested on: SR
SN12C = tested on: SN12C
HT-29 = tested on: HT-29

With `NC(=O)C(=O)C1CCC2=C(Sc3ccccc3N2)C1=O` (centres undefined) the GI50 (SK-MEL-5) was > 100 µM (inactive), the GI50 (HOP-62) was > 100 µM (inactive) and the GI50 (DLD-1) was > 100 µM (inactive). The GI50 (LOX IMVI) was > 100 µM (inactive), the GI50 (KM12) was > 100 µM (inactive) and the GI50 (UACC-257) was > 100 µM (inactive). For the same compound, the GI50 (UO-31) was > 100 µM (inactive), the GI50 (OVCAR-8) was > 100 µM (inactive) and the GI50 (U-251) was > 100 µM (inactive). For the same compound, the GI50 (SF-268) was > 100 µM (inactive), the GI50 (K562) was > 100 µM (inactive) and the GI50 (RXF 631) was > 100 µM (inactive). The GI50 (OVCAR-3) was > 100 µM (inactive), the GI50 (HCC 2998) was > 100 µM (inactive) and the GI50 (SK-MEL-2) was > 100 µM (inactive). The GI50 (CCRF-CEM) was > 10 µM (inactive), the GI50 (CAKI-1) was > 100 µM (inactive) and the GI50 (DMS-114) was > 100 µM (inactive). For the same compound, the GI50 (RXF 393) was > 100 µM (inactive), the GI50 (HOP-92) was 27.4 µM (inactive) and the GI50 (COLO 205) was > 100 µM (inactive). The GI50 (M19-MEL) was > 100 µM (inactive), the GI50 (MOLT-4) was > 100 µM (inactive) and the GI50 (UACC-62) was > 100 µM (inactive). The GI50 (IGROV-1) was > 100 µM (inactive), the GI50 (SF-539) was > 100 µM (inactive) and the GI50 (KM-20L2) was > 100 µM (inactive). The GI50 (HL-60) was > 100 µM (inactive), the GI50 (SNB-75) was > 100 µM (inactive) and the GI50 (LXFL 529) was > 100 µM (inactive). For the same compound, the GI50 (786-0) was > 100 µM (inactive), the GI50 (NCI-H23) was > 100 µM (inactive) and the GI50 (ACHN) was > 100 µM (inactive). For the same compound, the GI50 (HCT-116) was > 100 µM (inactive), the GI50 (SW-620) was > 100 µM (inactive) and the GI50 (RPMI-8226) was > 100 µM (inactive). The GI50 (SNB-19) was > 100 µM (inactive), the GI50 (TK-10) was > 100 µM (inactive) and the GI50 (OVCAR-4) was > 100 µM (inactive). For the same compound, the GI50 (OVCAR-5) was > 100 µM (inactive), the GI50 (Malme-3M) was > 100 µM (inactive) and the GI50 (SK-MEL-28) was > 100 µM (inactive). The GI50 (NCI-H522) was 37.5 µM (inactive), the GI50 (A498) was > 100 µM (inactive) and the GI50 (A549) was > 100 µM (inactive). The GI50 (M14) was > 100 µM (inactive), the GI50 (EKVX) was > 100 µM (inactive) and the GI50 (SNB-78) was > 100 µM (inactive). For the same compound, the GI50 (SK-OV-3) was > 100 µM (inactive), the GI50 (HCT-15) was over 100 µM and the GI50 (NCI-H460) was > 100 µM (inactive).

For `C[Si](C)(C)/C=C/CCC(C=O)(CCCl)c1ccccc1` (centres undefined), the GI50 (XF498) was 18.7 µM (inactive), the GI50 (SF-295) was 21.1 µM (inactive) and the GI50 (SK-MEL-5) was 17.8 µM (inactive). For the same compound, the GI50 (DLD-1) was 29.5 µM (inactive), the GI50 (LOX IMVI) was 19.1 µM (inactive) and the GI50 (KM12) was 26.7 µM (inactive). The GI50 (UACC-257) was 26.2 µM (inactive), the GI50 (UO-31) was 44.2 µM (inactive) and the GI50 (OVCAR-8) was 27.7 µM (inactive). The GI50 (U-251) was 15.7 µM (inactive), the GI50 (SF-268) was 31.7 µM (inactive) and the GI50 (K562) was 25 µM (inactive). The GI50 (OVCAR-3) was 16.7 µM (inactive), the GI50 (HCC 2998) was 29.6 µM (inactive) and the GI50 (SK-MEL-2) was 14.8 µM (inactive). The GI50 (CCRF-CEM) was 29.6 µM (inactive), the GI50 (DMS-114) was 19.5 µM (inactive) and the GI50 (RXF 393) was 22.4 µM (inactive). The GI50 (HOP-92) was 28.1 µM (inactive), the GI50 (COLO 205) was 29.2 µM (inactive) and the GI50 (DMS-273) was 19.4 µM (inactive). The GI50 (M19-MEL) was 27.7 µM (inactive), the GI50 (MOLT-4) was 16.3 µM (inactive) and the GI50 (UACC-62) was 21.7 µM (inactive). The GI50 (IGROV-1) was 41.1 µM (inactive), the GI50 (SF-539) was 31.2 µM (inactive) and the GI50 (KM-20L2) was 28.8 µM (inactive). For the same compound, the GI50 (HL-60) was 6.98 µM (inactive), the GI50 (SNB-75) was 35.2 µM (inactive) and the GI50 (LXFL 529) was 30.1 µM (inactive). The GI50 (786-0) was 16.3 µM (inactive), the GI50 (NCI-H23) was 21.8 µM (inactive) and the GI50 (ACHN) was 22.8 µM (inactive). The GI50 (HCT-116) was 14.1 µM (inactive), the GI50 (HOP-18) was 27.4 µM (inactive) and the GI50 (SW-620) was 28.6 µM (inactive). The GI50 (SNB-19) was 42.7 µM (inactive), the GI50 (TK-10) was 56.1 µM (inactive) and the GI50 (SR) was > 10 µM (inactive). For the same compound, the GI50 (OVCAR-5) was 25.5 µM (inactive), the GI50 (SN12C) was 31.4 µM (inactive) and the GI50 (Malme-3M) was 17.6 µM (inactive). For the same compound, the GI50 (SK-MEL-28) was 32.9 µM (inactive), the GI50 (NCI-H522) was 13.9 µM (inactive) and the GI50 (A498) was 64.1 µM (inactive). The GI50 (A549) was 23.4 µM (inactive), the GI50 (M14) was 28.3 µM (inactive) and the GI50 (HT-29) was 14.6 µM (inactive). The GI50 (EKVX) was 26 µM (inactive), the GI50 (SNB-78) was 23.8 µM (inactive) and the GI50 (SK-OV-3) was 56.9 µM (inactive). The GI50 (HCT-15) was 19.5 µM and the GI50 (NCI-H460) was 31.6 µM (inactive).
